Measurements: ChEMBL document CHEMBL5143704, “Discovery of 2,4-diarylaminopyrimidine derivatives bearing dithiocarbamate moiety as novel ALK inhibitors” (Bioorg Med Chem, 2022)

Assays:
[1] = test system: A549; test: cells; conditions: Homo sapiens, A549, 96 h
Description: Antiproliferative activity against ALK-negative human A549 cells assessed as inhibition of cell growth incubated for 96 hrs by MTT assay

[2] = test system: KARPAS-299; test: cells; conditions: Homo sapiens, KARPAS-299, 96 h
Description: Antiproliferative activity against NPM-ALK positive human KARPAS-299 cells assessed as inhibition of cell growth incubated for 96 hrs by CCK-8 assay

[3] = biological target: ALK tyrosine kinase receptor (Homo sapiens, UniProt Q9UM73); test: Inhibition of wild type N-terminal GST tagged ALK cytoplasmic domain (1058 to 1620 end residues) (unknown origin) expressed in Sf21 cells incubated for 1 hr in presence of ATP
[4] = test system: HCT-116; test: cells; conditions: Homo sapiens, HCT-116, 96 h
Description: Antiproliferative activity against ALK-negative human HCT-116 cells assessed as inhibition of cell growth incubated for 96 hrs by MTT assay

[5] = test system: NCI-H2228; test: cells; conditions: Homo sapiens, NCI-H2228, 96 h
Description: Antiproliferative activity against EML4-ALK positive human NCI-H2228 cells assessed as inhibition of cell growth incubated for 96 hrs by MTT assay

ALK tyrosine kinase receptor, sequence (Q9UM73 whole entry, the tested form may be a part): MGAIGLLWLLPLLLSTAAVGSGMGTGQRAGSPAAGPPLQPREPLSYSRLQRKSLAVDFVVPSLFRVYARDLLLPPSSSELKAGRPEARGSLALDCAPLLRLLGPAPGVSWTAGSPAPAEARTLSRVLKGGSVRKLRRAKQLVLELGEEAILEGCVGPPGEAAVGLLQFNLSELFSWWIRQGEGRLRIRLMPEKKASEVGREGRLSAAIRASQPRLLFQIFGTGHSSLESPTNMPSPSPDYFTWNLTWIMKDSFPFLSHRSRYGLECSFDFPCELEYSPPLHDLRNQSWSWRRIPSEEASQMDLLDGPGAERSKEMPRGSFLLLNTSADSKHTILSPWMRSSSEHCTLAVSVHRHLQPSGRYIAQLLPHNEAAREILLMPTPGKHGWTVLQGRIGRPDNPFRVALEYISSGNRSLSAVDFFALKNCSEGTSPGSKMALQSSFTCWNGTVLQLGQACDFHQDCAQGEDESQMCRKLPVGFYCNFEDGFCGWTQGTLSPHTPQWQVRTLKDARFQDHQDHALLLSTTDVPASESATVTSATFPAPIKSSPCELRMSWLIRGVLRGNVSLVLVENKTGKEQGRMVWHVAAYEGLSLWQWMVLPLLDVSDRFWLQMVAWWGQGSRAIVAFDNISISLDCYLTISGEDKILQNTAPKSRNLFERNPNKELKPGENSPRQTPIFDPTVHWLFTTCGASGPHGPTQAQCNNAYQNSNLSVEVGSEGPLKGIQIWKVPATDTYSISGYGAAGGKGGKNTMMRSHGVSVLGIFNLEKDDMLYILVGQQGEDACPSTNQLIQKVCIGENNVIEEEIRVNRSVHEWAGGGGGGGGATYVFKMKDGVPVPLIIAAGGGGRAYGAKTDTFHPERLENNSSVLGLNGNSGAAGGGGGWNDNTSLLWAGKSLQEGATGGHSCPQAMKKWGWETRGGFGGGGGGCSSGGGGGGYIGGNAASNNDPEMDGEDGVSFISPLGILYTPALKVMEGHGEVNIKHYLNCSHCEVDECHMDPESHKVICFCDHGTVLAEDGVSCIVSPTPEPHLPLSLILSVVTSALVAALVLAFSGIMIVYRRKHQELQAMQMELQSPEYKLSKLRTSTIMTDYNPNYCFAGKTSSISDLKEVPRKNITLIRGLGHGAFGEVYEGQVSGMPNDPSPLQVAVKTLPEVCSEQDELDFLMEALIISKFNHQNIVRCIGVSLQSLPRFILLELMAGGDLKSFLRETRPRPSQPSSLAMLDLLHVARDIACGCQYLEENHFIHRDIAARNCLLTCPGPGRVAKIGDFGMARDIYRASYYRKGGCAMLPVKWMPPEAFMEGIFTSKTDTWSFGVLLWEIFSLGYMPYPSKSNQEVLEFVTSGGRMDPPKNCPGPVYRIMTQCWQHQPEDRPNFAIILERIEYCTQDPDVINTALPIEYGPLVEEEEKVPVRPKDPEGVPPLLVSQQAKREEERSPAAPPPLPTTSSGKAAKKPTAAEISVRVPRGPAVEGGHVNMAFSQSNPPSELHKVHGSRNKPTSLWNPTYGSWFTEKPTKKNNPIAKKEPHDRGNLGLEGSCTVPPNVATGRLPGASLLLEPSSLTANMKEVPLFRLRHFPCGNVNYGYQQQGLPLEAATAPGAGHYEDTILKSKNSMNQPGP

Row | SMILES | IC50 [1] [µM] | IC50 [2] [nM] | IC50 [3] [nM] | IC50 [4] [µM] | IC50 [5] [nM]
1 | CCN(CC)CCCSC(=S)N1CCC(c2cc(OC(C)C)c(Nc3ncc(Cl)c(Nc4ccccc4S(=O)(=O)C(C)C)n3)cc2C)CC1 | > 10 | 500 | > 100 | > 10 | 490
2 | Cc1cc(Nc2ncc(Cl)c(Nc3ccccc3S(=O)(=O)C(C)C)n2)c(OC(C)C)cc1C1CCN(C(=S)SCCN(C)C)CC1 | > 10 | 110 |  | 1.07 | 180
3 | Cc1cc(Nc2ncc(Cl)c(Nc3ccccc3S(=O)(=O)C(C)C)n2)c(OC(C)C)cc1C1CCN(C(=S)SCC(=O)N2CCSCC2)CC1 | > 10 | 80 |  | 3.86 | 630
4 | Cc1cc(Nc2ncc(Cl)c(Nc3ccccc3S(=O)(=O)C(C)C)n2)c(OC(C)C)cc1C1CCN(C(=S)SCCN2CCCC2)CC1 | 1.72 | 220 |  | 4.67 | 280
5 | Cc1cc(Nc2ncc(Cl)c(Nc3ccccc3S(=O)(=O)C(C)C)n2)c(OC(C)C)cc1C1CCN(C(=S)SCCN2CCCCC2)CC1 | > 10 | 90 | > 100 | 2.45 | 280
6 | Cc1cc(Nc2ncc(Cl)c(Nc3ccccc3S(=O)(=O)C(C)C)n2)c(OC(C)C)cc1C1CCN(C(=O)SCC(=S)N2CCN(CCO)CC2)CC1 | > 10 | 80 |  | 1.53 | 120
7 | Cc1cc(Nc2ncc(Cl)c(Nc3ccccc3S(=O)(=O)C(C)C)n2)c(OC(C)C)cc1C1CCN(C(=O)SCC(=S)N(C)CCN(C)C)CC1 | > 10 | 480 |  | 6.55 | 370
8 | Cc1cc(Nc2ncc(Cl)c(Nc3ccccc3S(=O)(=O)C(C)C)n2)c(OC(C)C)cc1C1CCN(C(=S)SCC(=O)NC2CCCCC2)CC1 | > 10 | 590 |  | 7.83 | 2660
9 | CCN1CCN(C(=S)CSC(=O)N2CCC(c3cc(OC(C)C)c(Nc4ncc(Cl)c(Nc5ccccc5S(=O)(=O)C(C)C)n4)cc3C)CC2)CC1 | > 10 | 320 |  | 2.06 | 130
10 | Cc1cc(Nc2ncc(Cl)c(Nc3ccccc3S(=O)(=O)C(C)C)n2)c(OC(C)C)cc1C1CCN(C(=S)SCC(=O)NC(C)C)CC1 | > 10 | 140 |  | > 10 | 360
11 | Cc1cc(Nc2ncc(Cl)c(Nc3ccccc3S(=O)(=O)C(C)C)n2)c(OC(C)C)cc1C1CCN(C(=O)SCC(=S)N2CCCCC2)CC1 | > 10 | 150 |  | 3.36 | 380
12 | Cc1cc(Nc2ncc(Cl)c(Nc3ccccc3S(=O)(=O)C(C)C)n2)c(OC(C)C)cc1C1CCN(C(=O)SCC(=S)N2CCOCC2)CC1 | > 10 | 120 |  | 4.95 | 650
13 | Cc1cc(Nc2ncc(Cl)c(Nc3ccccc3S(=O)(=O)C(C)C)n2)c(OC(C)C)cc1C1CCN(C(=O)SCC(=S)N2CCCC2)CC1 | > 10 | 860 |  | 3.17 | 1210
14 | Cc1cc(Nc2ncc(Cl)c(Nc3ccccc3S(=O)(=O)C(C)C)n2)c(OC(C)C)cc1C1CCN(C(=O)SCC(=S)N2CC(C)N(C)C(C)C2)CC1 (stereo not given) | > 10 | 100 | > 100 | 3.96 | 210
15 | Cc1cc(Nc2ncc(Cl)c(Nc3ccccc3S(=O)(=O)C(C)C)n2)c(OC(C)C)cc1C1CCN(C(=O)SCC(=S)N2CCSCC2)CC1 | > 10 | 230 |  | 5.28 | 350
16 | Cc1cc(Nc2ncc(Cl)c(Nc3ccccc3S(=O)(=O)C(C)C)n2)c(OC(C)C)cc1C1CCN(C(=O)SCC(=S)N2CCN(C)CC2)CC1 | > 10 | 140 | > 100 | 2.7 | 320

Row | SMILES | IC50 [1] [µM] | IC50 [2] [nM] | IC50 [3] [nM] | IC50 [4] [µM] | IC50 [5] [nM]
17 | Cc1cc(Nc2ncc(Cl)c(Nc3ccccc3S(=O)(=O)C(C)C)n2)c(OC(C)C)cc1C1CCN(C(=S)SCC(=O)N2CCOCC2)CC1 | > 10 | 100 |  | > 10 | 1600
18 | Cc1cc(Nc2ncc(Cl)c(Nc3ccccc3S(=O)(=O)C(C)C)n2)c(OC(C)C)cc1C1CCNCC1 [CERITINIB] |  |  |  | 1.07 | 30
19 | Cc1cc(Nc2ncc(Cl)c(Nc3ccccc3S(=O)(=O)C(C)C)n2)c(OC(C)C)cc1C1CCN(C(=O)SCC(=S)N(C)C)CC1 | > 10 | 230 |  | 2.73 | 850
20 | Cc1cc(Nc2ncc(Cl)c(Nc3ccccc3S(=O)(=O)C(C)C)n2)c(OC(C)C)cc1C1CCN(C(=O)SCC(=S)N2CCN(C3CCCC3)CC2)CC1 | > 10 | 1700 |  | 5.81 | 350
21 | Cc1cc(Nc2ncc(Cl)c(Nc3ccccc3S(=O)(=O)C(C)C)n2)c(OC(C)C)cc1C1CCN(C(=S)SCC(N)=O)CC1 | > 10 | 180 |  | 8.15 | 270
22 | Cc1cc(Nc2ncc(Cl)c(Nc3ccccc3S(=O)(=O)C(C)C)n2)c(OC(C)C)cc1C1CCN(C(=O)SCC(=S)N2CCC[C@H]2CO)CC1 | > 10 | 110 |  | 4.89 | 220
23 | Cc1cc(Nc2ncc(Cl)c(Nc3ccccc3S(=O)(=O)C(C)C)n2)c(OC(C)C)cc1C1CCN(C(=O)SCC(=S)N2CCN(S(C)(=O)=O)CC2)CC1 | > 10 | 340 |  | 3.54 | 160
24 | Cc1cc(Nc2ncc(Cl)c(Nc3ccccc3S(=O)(=O)C(C)C)n2)c(OC(C)C)cc1C1CCN(C(=S)SCC(=O)NC2CCCC2)CC1 | > 10 | 130 |  | 3.52 | 410
25 | CCN(CC)C(=O)CSC(=S)N1CCC(c2cc(OC(C)C)c(Nc3ncc(Cl)c(Nc4ccccc4S(=O)(=O)C(C)C)n3)cc2C)CC1 | > 10 | 270 |  | 4.74 | 860
26 | CCN(CC)CCSC(=S)N1CCC(c2cc(OC(C)C)c(Nc3ncc(Cl)c(Nc4ccccc4S(=O)(=O)C(C)C)n3)cc2C)CC1 | > 10 | 260 |  | 0.98 | 230
27 | Cc1cc(Nc2ncc(Cl)c(Nc3ccccc3S(=O)(=O)C(C)C)n2)c(OC(C)C)cc1C1CCN(C(=S)SCCN2CCOCC2)CC1 | > 10 | 320 |  | 3.78 | 170
28 | Cc1cc(Nc2ncc(Cl)c(Nc3ccccc3S(=O)(=O)C(C)C)n2)c(OC(C)C)cc1C1CCN(C(=S)SCC(=O)N2CCC(C)CC2)CC1 | > 10 | 310 |  | 5.46 | 2030
29 | Cc1cc(Nc2ncc(Cl)c(Nc3ccccc3S(=O)(=O)C(C)C)n2)c(OC(C)C)cc1C1CCN(C(=S)SCC(=O)N(C)C)CC1 | > 10 | 250 |  | 5.93 | 1540
30 | Cc1cc(Nc2ncc(Cl)c(Nc3ccccc3S(=O)(=O)C(C)C)n2)c(OC(C)C)cc1C1CCN(C(=S)SCC(=O)NC2CCC2)CC1 | > 10 | 140 |  | 7.03 | 450
31 | CCN(CC)C(=S)CSC(=O)N1CCC(c2cc(OC(C)C)c(Nc3ncc(Cl)c(Nc4ccccc4S(=O)(=O)C(C)C)n3)cc2C)CC1 | > 10 | 440 |  | 2.51 | 1230
32 | Cc1cc(Nc2ncc(Cl)c(Nc3ccccc3S(=O)(=O)C(C)C)n2)c(OC(C)C)cc1C1CCN(C(=S)SCC(=O)N2CCCCC2)CC1 | > 10 | 150 |  | 3.33 | 1320
